{"source": "patent US20100221719A1", "about": "“Probes for detecting protein nuclear transport and method for detecting and quantifying protein nuclear transport using the same” (priority 2004, published 2010)", "molecules": {"B1": {"name": "oncostatin M (protein, UniProt P13725 26-221, looked up)", "Oncostatin-M": "AAIGSCSKEYRVLLGQLQKQTDLMQDTSRLLDPYIRIQGLDVPKLREHCRERPGAFPSEETLRGLGRRGFLQTLNATLGCVLHRLADLEQRLPKAQDLERSGLNIEDLEKLQMARPNILGLRNNIYCMAQLLDNSDTAEPTKAGRGASQPPTPTPASDAFQRKLEGCRFLHGYHRFMHSVGRVFSKWGESPNRSRR", "notes": "oncostatin M (OSM), a ligand"}}, "key": {"[1]": {"tested_on": "Sterol Regulatory Element-Binding Proten-2 (SREBP-2)", "assay": "Confirmation of SREBP-2 localization in COS-7 cells transfected with pcDRc-SREBP", "format": "cell-based", "details": "in the presence of cholesterol, FIG. 18", "from_the_text": "Plasmid pcDRc-AR in Examples 1 to 6 was cleaved with restriction endonucleases NotI and XhoI to remove the cDNA encoding AR, and a cDNA encoding SREBP-2 was inserted at NotI and XhoI sites thereby constructing pcDRc-SREBP (FIG. 17)."}, "[2]": {"tested_on": "Sterol Regulatory Element-Binding Proten-2 (SREBP-2)", "assay": "Quantification of SREBP-2 translocation into the nucleus (reconstituted RLuc luminescence, COS-7 cells)", "format": "cell-based", "details": "different concentrations of cholesterol, FIG. 19", "method": "Translocation of SERPB-2 into the nucleus was qualified in the same manner as in Example 7. COS-7 cells were cotransfected with pcRDn-NLS and pcDRc-SREBP, and different concentrations of cholesterol were added to each microtiter well. The cells were harvested, and their lysates were mixed with a coelenterazine solution."}, "[3]": {"target": "T1, glucocorticoid receptor (GR) (Homo sapiens, UniProt P04150)", "T1 construct": "DnaE-C (C-terminal splicing domain of DnaE intein) (N); expressed in transfected cells; host or cells: NIH3T3", "T1 sequence (P04150 1-777)": "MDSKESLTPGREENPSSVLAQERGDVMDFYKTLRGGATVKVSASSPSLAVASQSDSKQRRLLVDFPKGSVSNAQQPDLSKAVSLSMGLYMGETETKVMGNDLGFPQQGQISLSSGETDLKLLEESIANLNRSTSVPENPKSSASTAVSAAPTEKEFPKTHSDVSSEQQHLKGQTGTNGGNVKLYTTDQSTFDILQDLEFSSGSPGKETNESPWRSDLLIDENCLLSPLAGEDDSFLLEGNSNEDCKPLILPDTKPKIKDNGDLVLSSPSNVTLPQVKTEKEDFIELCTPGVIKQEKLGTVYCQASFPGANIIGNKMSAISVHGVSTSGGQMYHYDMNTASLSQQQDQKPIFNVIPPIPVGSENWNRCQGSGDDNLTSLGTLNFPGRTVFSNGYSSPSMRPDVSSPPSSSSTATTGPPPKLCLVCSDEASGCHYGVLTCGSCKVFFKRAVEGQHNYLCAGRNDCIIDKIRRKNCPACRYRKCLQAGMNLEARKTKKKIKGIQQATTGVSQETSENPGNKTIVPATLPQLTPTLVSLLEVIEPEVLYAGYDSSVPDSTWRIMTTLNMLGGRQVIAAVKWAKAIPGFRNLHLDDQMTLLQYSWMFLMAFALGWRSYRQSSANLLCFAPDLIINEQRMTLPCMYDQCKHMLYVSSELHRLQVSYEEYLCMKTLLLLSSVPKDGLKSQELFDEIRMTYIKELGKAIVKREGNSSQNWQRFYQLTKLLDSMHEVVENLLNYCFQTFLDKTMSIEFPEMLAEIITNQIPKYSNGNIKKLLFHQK", "assay": "Confirmation of GR localization in NIH3T3 cells transfected with pcDRc-GR", "format": "cell-based", "details": "addition of corticosterone, FIG. 14", "method": "Plasmid pcDRc-AR in Examples 1 to 6 was cleaved with restriction endonucleases NotI and XhoI to remove the cDNA encoding AR, and a cDNA encoding glucocorticoid receptor (GR) was inserted at NotI and XhoI sites (FIG. 13). The same experiment as in case of AR was performed using the thus-constructed plasmid."}, "[4]": {"target": "T1, glucocorticoid receptor (GR)", "assay": "Quantification of GR translocation into the nucleus (reconstituted RLuc luminescence, NIH3T3 cells)", "format": "cell-based", "method": "NIH3T3 cells were cotransfected with pcRDn-NLS and pcDRc-GR, and different concentrations of corticosterone were added to each microtiter well. The cells were harvested, and their lysates were mixed with a coelenterazine solution."}, "androgen receptor (AR) [5]": {"target": "T2, androgen receptor (AR) (Homo sapiens, UniProt P10275)", "T2 construct": "DnaE-C (C-terminal splicing domain of DnaE intein) (N); expressed in transfected cells; host or cells: COS-7", "T2 sequence (P10275 1-920)": "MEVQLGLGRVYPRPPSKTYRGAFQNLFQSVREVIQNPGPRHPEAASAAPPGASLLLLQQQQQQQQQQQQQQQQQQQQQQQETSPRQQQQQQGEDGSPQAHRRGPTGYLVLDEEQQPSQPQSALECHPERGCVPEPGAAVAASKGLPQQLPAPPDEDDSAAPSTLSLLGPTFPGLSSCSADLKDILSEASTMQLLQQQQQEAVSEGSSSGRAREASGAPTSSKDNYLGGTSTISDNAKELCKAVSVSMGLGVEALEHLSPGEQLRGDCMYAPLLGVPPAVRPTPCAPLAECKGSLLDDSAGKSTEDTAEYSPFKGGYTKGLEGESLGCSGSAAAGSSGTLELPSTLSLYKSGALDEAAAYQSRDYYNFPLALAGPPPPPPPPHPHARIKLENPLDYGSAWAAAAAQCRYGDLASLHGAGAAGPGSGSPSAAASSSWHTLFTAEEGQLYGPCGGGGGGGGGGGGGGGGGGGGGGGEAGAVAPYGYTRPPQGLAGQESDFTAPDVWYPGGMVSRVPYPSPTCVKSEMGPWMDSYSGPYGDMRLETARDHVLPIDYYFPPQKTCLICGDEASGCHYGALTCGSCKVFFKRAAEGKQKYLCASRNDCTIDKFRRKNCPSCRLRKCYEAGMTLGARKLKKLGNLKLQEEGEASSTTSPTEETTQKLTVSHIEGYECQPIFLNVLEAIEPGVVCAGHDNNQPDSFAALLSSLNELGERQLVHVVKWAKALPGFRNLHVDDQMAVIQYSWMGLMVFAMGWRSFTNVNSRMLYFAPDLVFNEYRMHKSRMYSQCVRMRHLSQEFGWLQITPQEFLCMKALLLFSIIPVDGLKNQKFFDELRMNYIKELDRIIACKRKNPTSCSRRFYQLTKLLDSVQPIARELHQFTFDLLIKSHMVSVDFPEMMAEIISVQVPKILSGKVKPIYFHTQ", "assay": "Cell-based in vitro assay of AR translocation into the nucleus (reconstituted RLuc luminescence, COS-7 cells)", "method": "COS-7 cells were cotransfected with the plasmids and incubated for 12 h. The medium was replaced with DMEM supplemented with 10% FBS, and 24 h after the replacement, steroid hormones or synthetic chemicals were added to each well.\nAfter the COS-7 cells were extensively incubated for 2 hours, the cells were harvested, and luciferase activity was evaluated by using the Renilla luciferase assay kit (Promega) with a luminometer (Minilumat LB9506; Berthold, GmbH) with an integration time of 20 sec.\nThe cells were harvested, and their lysates were mixed with a coelenterazine solution."}, "androgen receptor (AR) [6]": {"target": "T2, androgen receptor (AR)", "assay": "In vivo imaging of AR nuclear import in mouse brain with implanted cotransfected COS-7 cells", "details": "inhibitor 10 mg/kg i.p. plus DHT, average from three mice", "experimental": "Two hours after injection, 10 μl of coelenterazine (0.14 mg/kg of body weight) was injected intracerebrally in the mice, and representatives from each mouse group (n=3) were imaged in 2-min intervals."}, "[7]": {"tested_on": "Signal Transducer and Activator of Transcription 3 (STAT-3)", "assay": "Quantification of STAT-3 translocation into the nucleus (reconstituted RLuc luminescence, HEK293 cells)", "format": "cell-based", "details": "different concentrations of OSM", "method": "HEK293 cells were cotransfected with pcRDn-NLS and pcDRc-STAT3, and different concentrations of OSM were added to each microtiter well. The cells were harvested, and their lysates were mixed with a coelenterazine solution."}, "[8]": {"tested_on": "Signal Transducer and Activator of Transcription 3 (STAT-3)", "assay": "Confirmation of STAT-3 localization in HEK293 cells transfected with pcDRc-STAT3", "format": "cell-based", "details": "addition of OSM, FIG. 21", "from_the_text": "Plasmid pcDRc-AR in Examples 1 to 6 was cleaved with restriction endonucleases NotI and XhoI to remove the cDNA encoding AR, and a cDNA encoding STAT-3 was inserted at NotI and XhoI sites thereby constructing pcDRc-STAT-3 (FIG. 20)."}}}
{"molecule": "CC(C)CCC[C@@H](C)[C@H]1CC[C@H]2[C@@H]3CC=C4C[C@@H](O)CC[C@]4(C)[C@H]3CC[C@]12C", "note": "[cholesterol]", "values": [{"measurement": "localization of the probe with SREBP-2", "setting": "[1]", "value": "predominantly in cytoplasmic"}, {"measurement": "luminescence signals of reconstituted RLuc (dose-response)", "setting": "[2]", "value": "increased with decreasing the concentration of cholesterol"}]}
{"molecule": "C[C@]12C[C@H](O)[C@H]3[C@@H](CCC4=CC(=O)CC[C@@]43C)[C@@H]1CC[C@@H]2C(=O)CO", "note": "[corticosterone]", "values": [{"measurement": "localization of Probe I (GR)", "setting": "[3]", "value": "nuclear localization of Probe I"}, {"measurement": "luminescence signals of reconstituted RLuc (dose-response)", "setting": "[4]; different concentrations of corticosterone", "value": "increased with increasing the concentration of corticosterone"}]}
{"molecule": "CC12CC1(C)C(=O)N(c1cc(Cl)cc(Cl)c1)C2=O", "note": "(stereo not shown) [procymidone]", "values": [{"measurement": "inhibition of DHT-induced luminescence / nuclear translocation of AR", "setting": "androgen receptor (AR) [5]; in the presence of DHT, FIG. 5c", "value": "inhibit the DHT-induced strong luminescence"}, {"measurement": "increase in observed luminescence intensity (AR translocation, compound alone)", "setting": "androgen receptor (AR) [5]; over the concentration range tested, FIG. 5b", "value": "did not induce any increase"}, {"measurement": "luminescence intensity on stimulation with DHT together with inhibitor", "setting": "androgen receptor (AR) [6]", "value": "decrease in luminescence intensity"}]}
{"molecule": "C[C@]12CCC(=O)C=C1CC[C@@H]1[C@@H]2[C@@H](O)C[C@@]2(C)[C@H]1CC[C@]2(O)C(=O)CO", "note": "[cortisol]", "values": [{"measurement": "induction of GR translocation into the nucleus", "setting": "[4]; FIG. 15", "value": "induce the GR translocation into the nucleus"}]}
{"molecule": "B1", "values": [{"measurement": "luminescence signals of reconstituted RLuc (dose-response)", "setting": "[7]", "value": "increased with decreasing the concentration of cOSM"}, {"measurement": "localization of the probe with STAT3", "setting": "[8]", "value": "nuclear localization of the probe"}]}
